Columns and labels:
Type in all cases: in vivo
[1] = system: 3rd-instar larvae of Spodoptera exigua Hübner; experiment: Joint toxicity (LC50, CTC) of I-72 + indoxacarb, leaf-disk dipping, Example 1, Table 1; details: Spodoptera exigua, cabbage leaf-disk dipping, 72 h, A = compound I-72, B = indoxacarb, read-out: LC50
Description: Test subject: 3rd-instar larvae of Spodoptera exigua Hübner, a sensitive strain reared indoors.
Test conditions: temperature: 24-26° C., humidity: RH 60%, and illumination: L:D=14:10.
Preparation method: the test pesticides were accurately weighed respectively with an electronic analytical balance. After the two technical materials were respectively added into an appropriate amount of solvent and completely dissolved, the stock solution of the required concentration was prepared with water containing 0.1% Tween 80. The stock solutions of the two active ingredients were mixed in a certain ratio to prepare a mixed solution, which was then diluted respectively into a series of pesticide solutions with a certain concentration gradient according to the experimental design dosage.
Experimental method: the dipping method was adopted. […]
The co-toxicity coefficient (CTC value) of the mixture was calculated according to the following formula:
[formula] • in the formula: ATI-measured toxicity index of the mixture; S-LC50 of the standard pesticide; and M-LC50 of the mixture. […]
[formula] • in the formula: CTC-co-toxicity coefficient; ATI-measured toxicity index of the mixture; and TTI-theoretical toxicity index of the mixture. • CTC-co-toxicity coefficient • ATI-measured toxicity index of the mixture • TTI-theoretical toxicity index of the mixture

[2] = system: 3rd-instar larvae of Plutella xylostella; experiment: Joint toxicity of I-72 + chlorpyrifos, leaf-disk dipping, Example 16, Table 16; details: 3rd-instar larvae, cabbage leaf-disk dipping, 72 h, A = compound I-72, B = chlorpyrifos, read-out: LC50
Description: Test target: 3rd-instar larvae of Plutella xylostella.
(§1) Preparation of the pesticide solution: according to different test requirements, the test samples were accurately weighed respectively with an electronic analytical balance. The technical pesticides were dissolved in acetone, and then diluted with 0.1% Tween 80 water into a series of pesticide solutions with a certain concentration gradient according to the experimental design dosage.
(§2) Experimental method: first, fresh cabbage leaves cultivated in the greenhouse were selected. The cabbage leaves were made into circular leaf disks with a diameter of 3 cm using a puncher and dipped in the prepared pesticide solution for 10 s in the order from low dosage to high dosage according to the experimental design. After natural air-drying in the shade, they were placed in a 9-cm-diameter Petri dish with filter paper, and uniform and healthy test insects were introduced, with 10 insects for each treatment and 3 replicates for each treatment. In addition, a blank control was set up.
(§3) The treated test materials were placed in an observation room, and the temperature, humidity and illumination of the observation room could be adjusted as needed. […] Then, the co-toxicity coefficient of each ratio was calculated using the Sun Y-P method to evaluate the mixing effect (the same as in Example 1).

[3] = system: 2nd-instar larvae of Plutella xylostella; experiment: Joint toxicity of I-72 + spiropidion, Example 31, Table 31; details: Plutella xylostella, foliar; A = compound I-72, B = spiropidion; cabbage leaf dipping; 72 hours; read-out: LC50
Description: Test target: 2nd-instar larvae of Plutella xylostella.
as §1
as §2, with “first,” for “first, fresh cabbage leaves cultivated in the greenhouse were selected. The”, “selected” for “made into circular leaf disks with a diameter of 3 cm using a puncher”
as §3, with “needed. The number of dead and live insects was investigated 72 hours later.” for “needed.”

[4] = system: adult Phyllotreta vittuta Fabr.; experiment: Joint toxicity of I-72 + cyantraniliprole, Example 63, Table 63; details: A = compound I-72, B = cyantraniliprole; potted cabbage seedling spraying; 72 hours; read-out: LC50
Description: Test target: adult Phyllotreta vittuta Fabr.
as §1
Experimental method: first, uniform and consistent potted cabbage seedlings were selected. Then, uniform spraying was performed with the pesticide solution in the order from low dosage to high dosage according to the experimental design. After air-drying in the shade, adult flea beetles were transferred onto the treated cabbage seedlings, and then glass covers were put on them, with about 30-40 adult flea beetles on each seedling and 3 replicates for each treatment. In addition, a blank control was set up.
as §3, with “needed. The number of dead and live insects was investigated 72 hours later.” for “needed.”

[5] = system: adult Tetranychus cinnabarinus (Boisduval); experiment: Joint toxicity of I-72 + pyridaben, Example 84, Table 84; details: A = compound I72, B = pyridaben, potted-seedling spraying, 72 hours, read-out: LC50
Description: Test target: adult Tetranychus cinnabarinus (Boisduval), a sensitive strain reared indoors.
as §1
Experimental method: the activity of the mixture against the adult Tetranychus cinnabarinus (Boisduval) was determined by adopting the potted-seedling spraying method. First, the adult Tetranychus cinnabarinus of uniform size were transferred onto the leaves of kidney bean seedlings at the stage when the first pair of true leaves was fully expanded. After the adult mites had stabilized, the base number was counted. Then, the uniform spraying was performed with the pesticide solution in the order from low to high dose according to the experimental design, with 1.5 mL for each seedling and 3 replicates for each treatment. […]
as §3, with “effect,” for “effect (the same”, “1.” for “1).”

CN(C(=O)c1ccc2c(c1)OC(F)(F)O2)c1cccc(C(=O)Nc2c(Br)cc(C(F)(C(F)(F)F)C(F)(F)F)cc2OC(F)F)c1F [Compound I-72]
LC50 [1]: 0.227 µg/mL | LC50 [2]: 0.09 µg/mL | LC50 [3]: 0.0876 µg/mL | LC50 [4]: 1.16 µg/mL | LC50 [5]: 33.5 µg/mL

Source: patent US20260198495A1, “BINARY INSECTICIDE COMPOSITION AND USE THEREOF” (SHENYANG SINOCHEM AGROCHEMICALS R & D CO., LTD., priority 2022, published 2026)
